Assay results as given in US7655447B2, “ZSIG33-like polynucleotides” (ZymoGenetics, Inc., priority 2000, dated 2010).

Test system: antral portion of the stomach
Experiment: Gastric contractility: distance between transducing crystals on the antral stomach
Format: in vivo, Sprague-Dawley rats
Details: urethane-anesthetized rats
Excerpt: Two male Sprague-Dawley rats, approximately 12 weeks old (Harlan, Indianapolis, Ind.) are anesthetized with urethane and their stomachs are exposed through a small abdominal incision. Two 2.4 mm transducing crystals (Sonometrics, Ontario, Canada) are placed on the antral portion of the stomach such that circular contractions could be monitored as a change in the distance between the two crystals. The crystals are attached with VETBOND TISSUE ADHESIVE (3M, St. Paul, Minn.). […] The amplitude of the NE-induced decrease is approximately 50% of the acetylcholine-induced increase in distance. Both responses are transient. A negative control of 10 μl of phosphate buffer solution (PBS) applied topically between the crystals has no effect. […] The ZS33LP at 1 μg induces a sustained, rhythmic increase and decrease in crystal distance.

NC[C@H](O)c1ccc(O)c(O)c1 [norepinephrine]
change in the distance between the two crystals (circular contractions) (10 μl of 1 μM applied topically to the stomach between the crystals): reduction in the distance between the two crystals | amplitude of the NE-induced decrease relative to the acetylcholine-induced increase in distance (10 μl of 1 μM applied topically): approximately 50%
